Publication PMC7922224, “Searching for Small Molecules as Antibacterials: Non-Cytotoxic Diarylureas Analogues of Triclocarban” (Antibiotics, 2021)
≈ marks a conversion by molar mass, not a printed value.

Assays:
S. aureus ATCC 6538 = assay: MIC by broth microdilution (CLSI); type: cell-based, Staphylococcus aureus; details: Staphylococcus aureus, ATCC6538; Gram-positive; 37 °C, 24 h, Mueller Hinton Broth
Procedure: (§1) The in vitro Minimum Inhibitory Concentrations (MICs, μg/mL) were determined by the broth microdilution method according to the Clinical Laboratory Standards Institute (CLSI) guidelines. MIC values were recorded as the lowest concentration of compounds at which there was no optically detectable microorganism growth and evaluated by comparing the growth in each well visually with that of the growth in the control well for bacteria. All compounds were dissolved in dimethyl sulfoxide (DMSO) and were tested in a final concentration range of from 512 to 2 µg/mL. MICs for the reference antibiotic norfloxacin against quality control strains were used to confirm the validity of the screen. According to the CLSI guidelines, diphenylureas were tested in vitro against a panel of Gram-positive and Gram-negative bacteria belonging to the ATCC collection using the standard microdilution test for the determination of MICs. MICs of the synthesised compounds along with the parent compound TCC and with the standard antibiotic norfloxacin are listed in Table 1. The compounds were also analyzed in terms of molecular mass, logP (Table 1), number of hydrogen-bond donors and number of hydrogen-bond acceptors, and most of them obeyed Lipinski’s rule. […] Based on our results, it seems that the 3,4-dichloro-disubstitution pattern, which is present in TCC, is not crucial for activity. […] Moreover, the activity against Enterococcus faecalis was interesting. E. faecalis is a ubiquitous member of the healthy human gut microbiota and also a common opportunistic pathogen and leading cause of nosocomial infections. It has a high incidence for most infections, and the case numbers have been increasing in recent decades, likely due to its greater ability to persist in healthcare facilities and its higher abundance in the human gut microbiome. Kim et al. (2016) compared the bactericidal effects of plain and antibacterial soap containing 0.3% TCC. The authors found no significative difference between the effects of plain and medicated soap at either temperature, with the only exception of E. faecalis ATCC 19433 at 40 °C.
(§2) MICs (μg/mL) were determined by the broth microdilution method, using 96-well plates, according to CLSI [26]. Stock solutions of the investigated compounds were obtained by setting the concentration at the maximum possible value. Then, the stock solutions were diluted 1:10 with Mueller Hinton Broth (Oxoid, Italy). Afterwards, twofold serial dilutions in the suitable test medium were carried out to obtain a set of concentrations from 512 to 2 µg/mL in the wells. To obtain the stock solution, DMSO (100%) was employed as diluent. The following bacteria strains, available as freeze-dried discs, belonging to the ATCC collection, were used: Gram-positive: S. aureus ATCC 29213, 6538, and 6538P, E. faecalis ATCC 29212; Gram-negative: K. pneuomoniae ATCC 13883, P. aeruginosa ATCC 27853. To conserve the purity of cultures and to enable their reproducibility, cryovials of all microbial strains in the medium were set up and stored at −80 °C. Pre-cultures of each bacterial strain were prepared in Mueller Hinton Broth (MHB) and incubated at 37 °C for 3–5 h. The turbidity of bacterial cell suspension was calibrated to 0.5 McFarland Standard by the spectrophotometric method (OD 625 nm 0.08–0.10), as indicated in the CLSI protocol M7-A9 and, further, the standardized suspension was diluted (1:100) with MHB to reach 1–2 × 10^6 CFU/mL. All wells were seeded with 100 µl of the mentioned final inoculum, and some wells contained only inoculated broth as control growth. […] The MICs were determined by using the assay repeated twice in triplicate. Throughout the study, norfloxacin was used as reference antibiotic. Appropriate controls involved norfloxacin for bacteria as international reference standard. […]

S. aureus ATCC 29213 = assay: MIC by broth microdilution (CLSI); type: cell-based, Staphylococcus aureus; details: Staphylococcus aureus, ATCC29213; Gram-positive; 37 °C, 24 h, Mueller Hinton Broth
Procedure: as §1, §2

S. aureus ATCC 6538P = assay: MIC by broth microdilution (CLSI); type: cell-based, Staphylococcus aureus; details: Staphylococcus aureus, ATCC6538P; Gram-positive; 37 °C, 24 h, Mueller Hinton Broth
Procedure: as §1, §2

K. pneumoniae ATCC 13883 = assay: MIC by broth microdilution (CLSI); type: cell-based; details: Klebsiella pneumoniae, ATCC13883; Gram-negative; 37 °C, 24 h, Mueller Hinton Broth; read-out: MIC K.p. 13883
Procedure: as §1, §2

P. aeruginosa ATCC 27853 = assay: MIC by broth microdilution (CLSI); type: cell-based; details: Pseudomonas aeruginosa, ATCC27853; Gram-negative; 37 °C, 24 h, Mueller Hinton Broth
Procedure: as §1, §2

E. coli 25922 = assay: MIC by broth microdilution (CLSI); type: cell-based; details: Escherichia coli, Gram-negative, 37 °C, 24 h, Mueller Hinton Broth
E. faecalis ATCC 29212 = assay: MIC by broth microdilution (CLSI); type: cell-based, Enterococcus faecalis; details: Enterococcus faecalis, ATCC29212; Gram-positive; 37 °C, 24 h, Mueller Hinton Broth; read-out: MIC E.f. 29212
Procedure: as §1, §2

Staphylococcus aureus = assay: MIC by broth microdilution, S. aureus (strain not given); type: cell-based; details: strain not specified (best value among the ATCC strains), read-out: MIC against S. aureus
Procedure: as §1, §2

Row | MIC (S. aureus ATCC 6538) | MIC (S. aureus ATCC 29213) | MIC (S. aureus ATCC 6538P) | MIC (K. pneumoniae ATCC 13883) | MIC (P. aeruginosa ATCC 27853) | MIC (E. coli 25922) | MIC (E. faecalis ATCC 29212) | melting point | MIC (Staphylococcus aureus) | Compound
1 | 64 µg/mL (≈ 217 µM) | 128 µg/mL (≈ 434 µM) | 64 µg/mL (≈ 217 µM) | > 256 µg/mL | > 256 µg/mL | > 256 µg/mL | 128 µg/mL (≈ 434 µM) | 225 to 226 °C |  | Cc1ccc(NC(=O)Nc2ccc(Cl)c(Cl)c2)cc1 [1ae, 1-(3,4-Dichlorophenyl)-3-p-tolylurea]
2 | 16 µg/mL (≈ 66.6 µM) | > 256 µg/mL | 16 µg/mL (≈ 66.6 µM) | > 256 µg/mL | > 256 µg/mL | > 256 µg/mL | 64 µg/mL (≈ 266 µM) | 240 to 241 °C | 16 µg/mL (≈ 66.6 µM) | Cc1cccc(C)c1NC(=O)Nc1ccccc1 [1bf, 1-(2,6-Dimethylphenyl)-3-phenylurea]
3 | 32 µg/mL (≈ 103 µM) | 128 µg/mL (≈ 414 µM) | 128 µg/mL (≈ 414 µM) | > 256 µg/mL | > 256 µg/mL | > 256 µg/mL | 64 µg/mL (≈ 207 µM) | 249 to 250 °C | 32 µg/mL (≈ 103 µM) | Cc1cccc(C)c1NC(=O)Nc1ccc(Cl)c(Cl)c1 [1be, 1-(2,6-Dimethylphenyl)-3-(3,4-dichlorophenyl)urea]
4 | 32 µg/mL (≈ 141 µM) | 256 µg/mL (≈ 1130 µM) | 16 µg/mL (≈ 70.7 µM) | 256 µg/mL (≈ 1130 µM) | > 256 µg/mL | > 256 µg/mL | 64 µg/mL (≈ 283 µM) | 241 to 242 °C | 16 µg/mL (≈ 70.7 µM) | Cc1ccccc1NC(=O)Nc1ccccc1 [1fg, 1-(2-Methylphenyl)-3-phenylurea]
5 | 64 µg/mL (≈ 262 µM) | 128 µg/mL (≈ 524 µM) | 32 µg/mL (≈ 131 µM) | > 256 µg/mL | > 256 µg/mL | > 256 µg/mL | 128 µg/mL (≈ 524 µM) | 224 to 225 °C | 32 µg/mL (≈ 131 µM) | Cc1ccccc1NC(=O)Nc1ccccc1F [1gl, 1-(2-Metylphenyl)-3-(2-fluorophenyl)urea]
6 | 32 µg/mL (≈ 123 µM) | 256 µg/mL (≈ 982 µM) | 32 µg/mL (≈ 123 µM) | > 256 µg/mL | > 256 µg/mL | > 256 µg/mL | 256 µg/mL (≈ 982 µM) | 223 to 224 °C | 32 µg/mL (≈ 123 µM) | Cc1ccccc1NC(=O)Nc1ccccc1Cl [1gh, 1-(2-Chlorophenyl)-3-(2-methylphenyl)urea]
